Patent publication US11311592B2, “Bauhinia extract and uses thereof” (Academia Sinica, priority 2015, dated 2022)

Test system: p62-RL-HEK cells
Assay: Cell-based p62-Renilla luciferase reporter assay of autophagy activity
Set-up: species or system Human
Details: positive controls: 3-MA 5 μM, rapamycin 200 nM; 24 hr at 37° C.
Protocol: FIG. 3. Treatments with BVEE induces autophagy. A. GFP-LC3-HEK cells were treated with BVEE (50 μg/ml) at 37° C. for 24 h. An autophagy inducer, rapamycin, and an autophagy inhibitor, 3-MA, were included as controls. Clarified lysates containing equal amounts of proteins were resolved by SDS-PAGE and analyzed by Western blotting with anti-p62 (top panel), anti-LC3 (middle panel), and anti-GAPDH (bottom panel) antibodies. B. A stable cell line p62-RL-HEK that overexpresses Renilla luciferase-tagged p62 was treated with BVEE (50 μg/ml) at 37° C. for 24 h. Additional treatments with either rapamycin or 3-MA were included as controls. Renilla luciferase signal was determined by the addition of coelenterazine at equal volume to a final concentration of 5 μM. Luminescence emitted by DMSO-treated cells (Control) was referred to as 100% relative Renilla luciferase signal;
FIG. 12. The autophagy-inducing potency of extracts derived from B. variegate (BV) by using different solvents. The p62-RL-HEK cells were treated with or without B. variegate extract ([…]) at 37° C. for 24 h. Additional treatments with either rapamycin (RAP) or 3-MA were included as references. Renilla luciferase (Luc) activity was determined by the addition of coelenterazine to a final concentration of […]. Luminescence emitted by DMSO-treated cells (Control) was referred to as 100% relative Renilla luciferase signal. […]

Which “luciferase signal of p62-RL-HEK cells” value does the source give for Cn1cnc(N)c2ncnc1-2 [3-MA, 3-methyladenine] here?
The value was “significant increase”.
